1 molecule from US20260232805A1, “METHODS FOR IMAGING USING SPCCT” (NH THERAGUIX, priority 2022, published 2026) can be followed below.

This data set can be described thus: Osmolarity of the contrast agent composition. The format is physicochemical. The conditions noted are these: comparator, hyperosmolar. From the text: For comparison, Dotarem® (gadoteric acid, GUERBET, FRANCE) is hyperosmolar at 1574 mosm, which can cause side effects in humans related to the hypertonicity of a hyperosmolar product creating an intense call of water from the interstitial and cellular spaces to the plasma, responsible for pain or heat. A pain threshold of 600 mOsm/kg has been set.

`O=C([O-])CN1CCN(CC(=O)[O-])CCN(CC(=O)O)CCN(CC(=O)[O-])CC1.[Gd+3]` [Dotarem®, gadoteric acid]: the Osmolarity is given as 1574 mosm.
